Results on 3 substances are retold here after patent publication US7803930B2, “Antisense modulation of apolipoprotein B-expression” (Isis Pharmaceuticals, Inc., priority 2002, dated 2010).

Data set [1] can be described thus: ob/ob mice (Example 50): cholesterol, lipid, triglyceride, liver enzyme and glucose levels. The class given is in vivo, mouse. To be noted: high fat high cholesterol diet, 50 mg/kg i.p. twice a week, six weeks. A digest of the protocol: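 Ob/ob mice on 60% kcal fat diet with 0.15% cholesterol received 50 mg/kg oligonucleotide i.p. twice weekly for six weeks, with saline and control oligonucleotides.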

For data set [2], the system named is PTEN. Put plainly: ob/ob mice (Example 50): PTEN levels. The class given is in vivo, mouse. To be noted: high fat high cholesterol diet, 50 mg/kg i.p. twice a week, six weeks. How it is done: Ob/ob mice receiving a high fat, high cholesterol diet (60% kcal fat supplemented with 0.15% cholesterol) were treated with one of several oligonucleotides to evaluate their effect on apolipoprotein B-related phenotypic endpoints in ob/ob mice. After overnight fasting, mice from each group were dosed intraperitoneally twice a week with 50 mg/kg of ISIS 147483 (SEQ ID NO: 79), or 147764 (SEQ ID NO: 109), or the controls ISIS 116847 (SEQ ID NO: 857), or 141923 (SEQ ID NO: 858), or saline for six weeks. At study termination and forty eight hours after the final injections, animals were sacrificed and evaluated for target mRNA levels in liver, cholesterol and triglyceride levels, liver enzyme levels, serum glucose levels, and PTEN levels.

A short description of data set [3]: High fat fed mice (Example 51): intact oligonucleotide in liver tissue by capillary gel electrophoresis. In kind it is in vivo, mouse. To be noted: 50 mg/kg i.p. twice weekly. How it is done:
In a further embodiment of the invention, the inhibition of apolipoprotein B mRNA in mice was compared to liver oligonucleotide concentration, total cholesterol, LDL-cholesterol and HDL-cholesterol. Male C57Bl/6 mice receiving a high fat diet (60% fat) were evaluated over the course of 6 weeks for the effects of treatment with twice weekly intraperitoneal injections of 50 mg/kg ISIS 147764 (SEQ ID NO: 109) or 50 mg/kg of the control oligonucleotide ISIS 141923 (SEQ ID NO: 858). Control animals received saline treatment. Animals were sacrificed after 2 days, 1, 2, 4 and 6 weeks of treatment. Each treatment group at each time point consisted of 8 mice.
Target expression in liver was measured by real-time PCR as described by other examples herein and is expressed as percent inhibition relative to saline treated mice. Total, LDL- and HDL-cholesterol levels were measured by routine clinical analysis using an Olympus Clinical Analyzer (Olympus America Inc., Melville, N.Y.) and are presented in mg/dL. Results from saline-treated animals are shown for comparison. Intact oligonucleotide in liver tissue was measured by capillary gel electrophoresis and is presented as micrograms of oligonucleotide per gram of tissue.
The oligonucleotide treatments described in this example were duplicated to investigate the extent to which effects of ISIS 147764 persist following cessation of treatment. Mice were treated as described, and sacrificed 1, 2, 4, 6 and 8 weeks following the cessation of oligonucleotide treatment.

For data set [4], the system named is mouse apolipoprotein B mRNA. Description: Long-term study in lean CD-1 mice (Example 63): apolipoprotein B mRNA in liver. To be noted: after one month of treatment. The class given is in vivo. How it is done: In accordance with the present invention, the toxicity of ISIS 301012 (SEQ ID NO: 247) is investigated in a long-term, 3 month study in mice. Two-month old male and female CD-1 mice (Charles River Laboratories, Wilmington, Mass.) are dosed with 2, 5, 12.5, 25 or 50 mg/kg of ISIS 301012 twice per week for first week, and every 4 days thereafter. The mice are maintained on a standard rodent diet. Saline and control oligonucleotide animals serve as controls and are injected on the same schedule. Each treatment group contains 6 to 10 mice of each sex, and each treatment group is duplicated, one group for a 1 month study termination, the other for a 3 month study termination. After the 1 or 3 month treatment periods, the mice are sacrificed and evaluated for target expression in liver, lipid levels in serum and indicators of toxicity. Liver samples are procured, RNA is isolated and apolipoprotein B mRNA expression is measured by real-time PCR as described in other examples herein. Serum lipids, including total cholesterol, LDL-cholesterol, HDL-cholesterol and triglycerides, are evaluated by routine clinical analysis using an Olympus Clinical Analyzer (Olympus America Inc., Melville, N.Y.). Ratios of LDL-cholesterol to HDL-cholesterol and total cholesterol to HDL-cholesterol are also calculated. […]

In data set [5] the test system is apolipoprotein B mRNA. Put plainly: Lean vs high fat fed C57BL/6 mice (Example 20): target mRNA levels in liver. To be noted: 50 mg/kg i.p. every three days, six weeks. The class given is in vivo, mouse. How it is done:
Male C57BL/6 mice were divided into two matched groups; (1) wild-type control animals (lean animals) and (2) animals receiving a high fat diet (60% kcal fat). Control animals received saline treatment and were maintained on a normal rodent diet. After overnight fasting, mice from each group were dosed intraperitoneally every three days with saline or 50 mg/kg ISIS 147764 (SEQ ID No: 109) for six weeks. At study termination and forty eight hours after the final injections, animals were sacrificed and evaluated for target mRNA levels in liver, cholesterol and triglyceride levels, liver enzyme levels and serum glucose levels.

Data set [6] in a line: High fat fed C57BL/6 mice, 6 week timecourse: serum AST and ALT levels. In kind it is in vivo, mouse. To be noted: for ALT levels: 6 weeks (saline control 25 IU/L); for AST levels: 6 weeks (saline control 65 IU/L). The method, then:
Male C57BL/6 mice (n=8) receiving a high fat diet (60% kcal fat) were evaluated over the course of 6 weeks for the effects of ISIS 147764 on liver enzyme (AST and ALT) levels. Increased levels of the liver enzymes ALT and AST indicate toxicity and liver damage. Control animals received saline treatment (50 mg/kg). […] AST and ALT levels were measured at 6 weeks.

In the oligonucleotide strings, read from the 5' end, every base follows the letter of its sugar. An asterisk marks phosphorothioate; unmarked linkages are phosphodiester. Other units and linkages are bracketed, terminal groups are in braces. A string of capitals states the bases alone. e = 2'-O-(2-methoxyethyl) (MOE); [5mC] = 5-methylcytosine; d = 2'-deoxy (DNA)

For “147764 (eG*eT*e[5mC]*e[5mC]*e[5mC]*dT*dG*dA*dA*dG*dA*dT*dG*dT*d[5mC]*eA*eA*eT*eG*e[5mC]) [compound 147764]”, in data set [1], the Glucose is recorded as 209.2 mg/dL. In addition, in data set [1], the “Lipoproteins CHOL” value is recorded as 286.3 mg/dL. Further, the “Lipoproteins TRIG” value in data set [1] stood at 101.2 mg/dL. Also, the “Liver Enzymes ALT” value in data set [1] amounted to 835.0 IU/L. The “Liver Enzymes AST” value in data set [1] is on record as 406.5 IU/L. The “glucose, cholesterol, and triglyceride levels” value in data set [1] is “able to lower”. In addition, the “mRNA % control PTEN” value in data set [2] is 115.3 % control. The Intact oligonucleotide was 121 µg/g in data set [3] (high fat fed male C57Bl/6 mice, treatment period 1 week); 194 µg/g in data set [3] (high fat fed male C57Bl/6 mice, treatment period 2 weeks); 340 µg/g in data set [3] (high fat fed male C57Bl/6 mice, treatment period 4 weeks); 586 µg/g in data set [3] (high fat fed male C57Bl/6 mice, treatment period 6 weeks); 85 µg/g in data set [3] (high fat fed male C57Bl/6 mice, treatment period 2 days); 215 µg/g in data set [3] (high fat fed mice, 1 week after cessation of dosing). In addition, the Intact oligonucleotide in data set [3] (high fat fed mice, 2 weeks after cessation of dosing) was 168 µg/g; in data set [3] (high fat fed mice, 4 weeks after cessation of dosing), 124 µg/g; in data set [3] (high fat fed mice, 6 weeks after cessation of dosing), 70 µg/g; in data set [3] (high fat fed mice, 8 weeks after cessation of dosing) it was 43 µg/g.

Consider “ISIS 301012: SEQ ID NO: 247, antisense oligonucleotide targeted to human apolipoprotein B (antisense GCCTCAGTCTGCTTCGCACC; chemistry not given here)”, for which the “reduction of mouse apolipoprotein B mRNA levels in liver” value in data set [4] came to 53%.

In the case of “GTCCCTGAAGATGTCAATGC (2'-MOE gapmer, further chemistry not given here) [ISIS 147764]”, the “Percent Change mRNA” value in data set [5] (High Fat Group) is −87%; in data set [5] (Lean-control group) it was −73%. Moreover, the ALT levels in data set [6] (5 mg/kg) worked out at 50 IU/L; in data set [6] (25 mg/kg) it was 70 IU/L; in data set [6] (50 mg/kg), 100 IU/L. The results for the AST levels in data set [6] (5 mg/kg), in data set [6] (25 mg/kg) and in data set [6] (50 mg/kg) were 105 IU/L, 70 IU/L and 80 IU/L, respectively.
